Active and inactive are the calls of the source.
Assays:
[1] = target: Sphingosine 1-phosphate receptor 2 (Homo sapiens, UniProt O95136); assay: Dose Response Cell Based Assay for Antagonists of the S1P2 Receptor. [Related pubchem assays: 856, 736 ]; assay type: functional
Tumor necrosis factor [2] = target: T1, Tumor necrosis factor (Homo sapiens, UniProt P01375); assay: TNFa-triggered NF-kB activation inhibitors, SAR follow-up, cell-based, revised (AID 2337); assay type: functional
[3] = target: T2, Nucleotide-binding oligomerization domain-containing protein 1 (Homo sapiens, UniProt Q9Y239); assay: NOD1 signaling inhibitors, SAR follow-up, revised (AID 2333); assay type: functional
T2 sequence (Q9Y239 whole entry): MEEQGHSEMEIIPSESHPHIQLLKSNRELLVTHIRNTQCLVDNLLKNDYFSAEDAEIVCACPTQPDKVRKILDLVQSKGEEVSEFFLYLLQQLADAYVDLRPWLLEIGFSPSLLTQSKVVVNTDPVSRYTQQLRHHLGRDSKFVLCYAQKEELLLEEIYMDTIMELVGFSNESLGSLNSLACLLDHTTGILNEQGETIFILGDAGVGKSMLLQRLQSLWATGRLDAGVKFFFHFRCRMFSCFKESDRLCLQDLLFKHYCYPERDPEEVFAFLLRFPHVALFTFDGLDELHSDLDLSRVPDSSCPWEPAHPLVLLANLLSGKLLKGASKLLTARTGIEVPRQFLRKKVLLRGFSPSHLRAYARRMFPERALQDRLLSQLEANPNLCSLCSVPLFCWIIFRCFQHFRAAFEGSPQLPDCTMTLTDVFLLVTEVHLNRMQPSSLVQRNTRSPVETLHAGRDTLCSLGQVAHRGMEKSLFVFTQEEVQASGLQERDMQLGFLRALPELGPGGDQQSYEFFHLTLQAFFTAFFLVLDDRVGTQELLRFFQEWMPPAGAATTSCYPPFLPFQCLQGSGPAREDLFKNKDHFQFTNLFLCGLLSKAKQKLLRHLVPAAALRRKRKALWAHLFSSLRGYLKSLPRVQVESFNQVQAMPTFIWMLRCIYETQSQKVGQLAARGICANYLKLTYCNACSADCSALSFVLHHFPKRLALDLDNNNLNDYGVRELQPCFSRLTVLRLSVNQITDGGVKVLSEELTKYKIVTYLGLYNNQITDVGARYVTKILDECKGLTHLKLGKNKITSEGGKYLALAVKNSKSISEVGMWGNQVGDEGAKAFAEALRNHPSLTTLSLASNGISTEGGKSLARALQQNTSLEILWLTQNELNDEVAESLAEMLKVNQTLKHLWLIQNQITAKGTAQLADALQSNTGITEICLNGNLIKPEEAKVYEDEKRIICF

[4] = cytotoxicity in HEK-293T cells, dose response, cytotoxicity control for TCR NF-kB inhibitor project, luminescence, T-cell screen hits (AID 489026); assay type: functional, cell-based;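 further: cells exposed to compound about 14 hours before the viability readout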
Cytochrome P450 3A4 = Cytochrome P450 3A4 (Homo sapiens, UniProt P08684);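 further: CYP3A4 tested as one member of a cytochrome P450 panel screen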
Cytochrome P450 3A4, sequence (P08684 whole entry): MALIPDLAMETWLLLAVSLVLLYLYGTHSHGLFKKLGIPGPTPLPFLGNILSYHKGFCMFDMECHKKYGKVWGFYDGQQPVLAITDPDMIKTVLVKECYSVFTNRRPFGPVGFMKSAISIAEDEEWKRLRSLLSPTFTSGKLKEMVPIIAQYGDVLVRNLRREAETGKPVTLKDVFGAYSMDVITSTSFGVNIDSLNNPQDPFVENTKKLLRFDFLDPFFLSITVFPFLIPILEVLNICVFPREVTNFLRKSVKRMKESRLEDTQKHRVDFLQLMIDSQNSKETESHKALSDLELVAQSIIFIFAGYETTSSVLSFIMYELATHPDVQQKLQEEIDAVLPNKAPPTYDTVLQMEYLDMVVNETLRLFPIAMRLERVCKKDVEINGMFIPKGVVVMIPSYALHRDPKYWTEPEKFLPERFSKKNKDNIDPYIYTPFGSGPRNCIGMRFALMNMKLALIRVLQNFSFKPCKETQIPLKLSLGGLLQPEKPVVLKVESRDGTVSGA

HEK293 [5] = assay: cells; settings: Homo sapiens
[6] = inhibitors of intracellular T. cruzi replication, confirmation, NIH3T3 host cells, beta-gal luminescence (AID 2044); assay type: functional, cell-based;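 further: intracellular parasites grown in NIH/3T3 mouse fibroblasts as host cells; luminescent beta-galactosidase reporter signal from transgenic T. cruzi replicating inside host cells; inhibitors lower the luminescence signal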
[7] = cytotoxicity toward NIH3T3 fibroblasts, dose response, counter-screen, cell-based, ATP luminescence, mouse fibroblasts (AID 2010); assay type: functional;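 further: cells exposed to compound for about 90 hours before reading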
CAAX prenyl protease 1 = CAAX prenyl protease 1 (Saccharomyces cerevisiae S288c, UniProt P47154); assay: Ste24 protease inhibitors, dose response, biochemical, S. cerevisiae, plate reader, cherry-pick (AID 488815)
CAAX prenyl protease 1, sequence (P47154 whole entry): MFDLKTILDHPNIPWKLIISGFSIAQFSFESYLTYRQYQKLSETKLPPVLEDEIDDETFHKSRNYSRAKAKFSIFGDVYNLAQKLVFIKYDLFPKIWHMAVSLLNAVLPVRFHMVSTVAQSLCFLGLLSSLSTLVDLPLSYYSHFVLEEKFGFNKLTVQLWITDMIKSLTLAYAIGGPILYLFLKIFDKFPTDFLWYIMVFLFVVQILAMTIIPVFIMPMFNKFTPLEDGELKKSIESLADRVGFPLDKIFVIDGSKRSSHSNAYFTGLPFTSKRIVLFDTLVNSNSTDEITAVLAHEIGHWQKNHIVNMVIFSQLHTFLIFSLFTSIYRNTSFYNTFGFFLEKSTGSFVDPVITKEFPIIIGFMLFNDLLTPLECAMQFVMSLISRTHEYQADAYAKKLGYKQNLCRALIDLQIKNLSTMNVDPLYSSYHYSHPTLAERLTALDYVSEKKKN

CAAX prenyl protease 2 = CAAX prenyl protease 2 (Homo sapiens, UniProt Q9Y256); assay: human Rce1 protease inhibitors, dose response, biochemical, yeast membranes, quenched-peptide fluorescence, cherry-pick (AID 588849)
[8] = ADAM10 inhibitors, peptide cleavage, dose response, biochemical, QFRET (AID 743254);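 further: ADAM10 enzyme with the DM2 quenched FRET peptide as substrate; EDANS fluorescence gain as the protease cuts the substrate; inhibitor potency against ADAM10 proteolytic activity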
[9] = target: Disintegrin and metalloproteinase domain-containing protein 17 (Homo sapiens, UniProt P78536); assay: ADAM17 protease inhibitors, dose response, counter-screen for ADAM10 exosite inhibitor project, biochemical, quenched FRET substrate (AID 743253)
[10] = target: T3, G-protein coupled receptor 35 (Homo sapiens, UniProt Q9HC97); assay: GPR35 antagonists blocking zaprinast-driven arrestin recruitment, primary screen, imaging, U2OS, beta-arrestin-GFP, zaprinast agonist (AID 2058); assay type: functional;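 further: antagonist potency meaning inhibition of agonist-induced arrestin redistribution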
T3 sequence (Q9HC97 whole entry): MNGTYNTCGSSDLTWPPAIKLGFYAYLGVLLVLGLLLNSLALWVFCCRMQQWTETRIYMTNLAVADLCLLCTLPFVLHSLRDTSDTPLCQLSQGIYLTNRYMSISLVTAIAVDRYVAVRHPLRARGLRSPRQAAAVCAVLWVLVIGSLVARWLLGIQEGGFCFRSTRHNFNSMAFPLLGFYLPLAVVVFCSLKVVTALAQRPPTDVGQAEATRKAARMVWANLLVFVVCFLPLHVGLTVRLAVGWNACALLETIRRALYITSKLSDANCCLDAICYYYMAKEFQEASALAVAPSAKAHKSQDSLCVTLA

[11] = inhibitors of firefly luciferase expression or activity, dose response, H4 neuroglioma cells, luminescence (AID 1990); assay type: functional, cell-based
[12] = target: T3, G-protein coupled receptor 35; assay: SAR Analysis for the identification of Selective Antagonists of ERK1/2 Activity in GPR35-Overexpressing U2OS Cells. [Related pubchem assays: 2079, 2058 ]; assay type: functional, cell-based
[13] = system: Streptococcus sp. 'group A'; assay: growth inhibition of control SK(-) GAS strain, dose response, counter-screen for streptokinase expression inhibitor project, luminescence, kanamycin, BacTiterGlo, confirmation (AID 1900); assay type: functional, organism-based
[14] = Luminescence Cell-Based Dose Response HTS to Identify Inhibitors of 5'UTR Stem-Loop Driven Prion Protein mRNA Translation in H4 Neuroglioblastoma Cells. [Related pubchem assays: 1827 (Project Summary), 1813 (Primary HTS)]; assay type: functional
[15] = inhibitors of SNCA 5'UTR-driven reporter translation, confirmation, H4 neuroglioma cells, luminescence (AID 1988); assay type: functional, cell-based
Streptokinase A = target: T4, Streptokinase A (Streptococcus pyogenes serotype M1, UniProt P10520); assay: S. pyogenes streptokinase expression inhibitors, potency, dose response, plasminogen activation absorbance, OD405 (AID 1914); assay type: functional, Streptococcus pyogenes M1 GAS;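 further: secreted streptokinase activity via plasminogen activation per viability signal from cell pellet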
T4 sequence (P10520 whole entry): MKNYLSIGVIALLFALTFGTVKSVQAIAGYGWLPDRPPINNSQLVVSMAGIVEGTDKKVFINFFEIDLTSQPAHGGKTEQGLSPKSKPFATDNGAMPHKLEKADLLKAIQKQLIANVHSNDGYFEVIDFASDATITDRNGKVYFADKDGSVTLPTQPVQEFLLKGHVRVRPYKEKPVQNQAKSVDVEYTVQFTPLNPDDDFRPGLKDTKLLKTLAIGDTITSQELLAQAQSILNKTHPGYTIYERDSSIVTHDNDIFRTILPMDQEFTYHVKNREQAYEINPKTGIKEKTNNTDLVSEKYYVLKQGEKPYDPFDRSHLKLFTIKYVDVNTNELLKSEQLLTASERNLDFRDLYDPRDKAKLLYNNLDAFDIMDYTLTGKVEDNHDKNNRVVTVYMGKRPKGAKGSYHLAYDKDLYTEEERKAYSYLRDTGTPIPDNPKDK

Streptococcus = assay: Group A Streptococcus viability loss, dose response, counter-screen for streptokinase expression inhibitor project, luminescence, BacTiterGlo (AID 1915); assay type: functional, organism-based;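 further: potency for reduction of bacterial viability or growth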
[16] = target: Tyrosine-protein phosphatase non-receptor type 12 (Homo sapiens, UniProt Q05209); assay: SAR Selectivity Analysis of small molecule inhibitors of PEST using pCAP in a fluorescence assay. [Related pubchem assays (depositor defined):AID1779, AID1784, AID2135]; assay type: functional
Tyrosine-protein phosphatase non-receptor type 12, sequence (Q05209 whole entry): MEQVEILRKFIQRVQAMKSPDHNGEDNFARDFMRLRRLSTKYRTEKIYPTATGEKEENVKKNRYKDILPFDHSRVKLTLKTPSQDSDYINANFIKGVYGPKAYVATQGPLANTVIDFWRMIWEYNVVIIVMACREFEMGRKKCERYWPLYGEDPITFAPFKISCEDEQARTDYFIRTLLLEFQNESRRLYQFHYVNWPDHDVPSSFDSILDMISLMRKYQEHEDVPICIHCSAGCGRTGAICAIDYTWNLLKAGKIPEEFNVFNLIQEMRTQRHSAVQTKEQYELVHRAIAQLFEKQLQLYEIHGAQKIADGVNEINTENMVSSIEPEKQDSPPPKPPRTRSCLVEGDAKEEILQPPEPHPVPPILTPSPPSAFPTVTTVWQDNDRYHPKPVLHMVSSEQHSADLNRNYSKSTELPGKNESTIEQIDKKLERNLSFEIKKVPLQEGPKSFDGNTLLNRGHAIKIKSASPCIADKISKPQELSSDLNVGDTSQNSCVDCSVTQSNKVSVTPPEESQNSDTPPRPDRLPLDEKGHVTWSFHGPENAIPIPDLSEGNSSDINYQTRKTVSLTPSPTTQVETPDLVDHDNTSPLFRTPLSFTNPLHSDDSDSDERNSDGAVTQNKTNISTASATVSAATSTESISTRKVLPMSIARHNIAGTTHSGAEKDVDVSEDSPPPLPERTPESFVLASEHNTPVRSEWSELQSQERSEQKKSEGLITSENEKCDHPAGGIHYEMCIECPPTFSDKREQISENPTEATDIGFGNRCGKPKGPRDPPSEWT

[17] = target: T5, Tyrosine-protein phosphatase non-receptor type 22 (Homo sapiens, UniProt Q9Y2R2); assay: SAR LYP1 Fluorescent Assay using OMFP substrate for In Vitro dose response studies - Set 3. [Related pubchem assays (depositor defined):AID1779, AID1784, AID2140, AID2686]; assay type: functional
T5 sequence (Q9Y2R2 whole entry): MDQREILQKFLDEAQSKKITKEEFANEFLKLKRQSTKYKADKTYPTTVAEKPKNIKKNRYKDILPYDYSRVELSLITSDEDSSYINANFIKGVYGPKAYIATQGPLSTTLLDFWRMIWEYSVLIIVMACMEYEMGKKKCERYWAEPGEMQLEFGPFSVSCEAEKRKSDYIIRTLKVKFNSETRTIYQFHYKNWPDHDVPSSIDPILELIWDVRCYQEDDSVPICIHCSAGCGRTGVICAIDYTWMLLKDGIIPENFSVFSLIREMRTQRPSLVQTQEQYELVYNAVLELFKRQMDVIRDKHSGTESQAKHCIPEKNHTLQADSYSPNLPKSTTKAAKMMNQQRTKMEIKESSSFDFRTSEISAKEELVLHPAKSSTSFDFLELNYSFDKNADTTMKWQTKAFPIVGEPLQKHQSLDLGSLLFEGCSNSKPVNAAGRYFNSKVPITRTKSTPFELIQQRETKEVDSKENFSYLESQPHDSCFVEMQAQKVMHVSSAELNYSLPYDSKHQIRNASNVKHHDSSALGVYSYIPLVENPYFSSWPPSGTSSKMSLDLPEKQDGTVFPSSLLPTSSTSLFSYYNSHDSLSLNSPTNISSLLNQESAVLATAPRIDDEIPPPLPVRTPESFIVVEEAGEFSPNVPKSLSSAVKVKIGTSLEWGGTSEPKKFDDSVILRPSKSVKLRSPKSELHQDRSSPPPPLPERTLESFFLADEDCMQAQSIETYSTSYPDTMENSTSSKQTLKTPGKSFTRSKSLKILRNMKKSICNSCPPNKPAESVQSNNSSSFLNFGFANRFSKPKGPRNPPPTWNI

[18] = target: T6, Tyrosine-protein phosphatase non-receptor type 7 (Homo sapiens, UniProt P35236); assay: HePTP (PTPN7) phosphatase inhibitor potency, SAR follow-up, biochemical, set 2 (AID 449736); assay type: functional
T6 sequence (P35236 whole entry): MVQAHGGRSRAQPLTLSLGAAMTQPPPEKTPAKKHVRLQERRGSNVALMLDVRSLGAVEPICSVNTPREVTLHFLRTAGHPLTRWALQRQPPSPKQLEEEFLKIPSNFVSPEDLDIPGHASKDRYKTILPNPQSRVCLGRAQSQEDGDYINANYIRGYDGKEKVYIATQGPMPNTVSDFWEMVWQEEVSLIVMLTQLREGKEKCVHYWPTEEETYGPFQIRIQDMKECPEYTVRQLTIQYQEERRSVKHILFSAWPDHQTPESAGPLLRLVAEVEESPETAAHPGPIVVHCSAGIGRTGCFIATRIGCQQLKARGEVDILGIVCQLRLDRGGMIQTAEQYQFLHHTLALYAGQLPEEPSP

[19] = target: G-protein coupled receptor 55 (Homo sapiens, UniProt Q9Y2T6); assay: GPR55 antagonists, SAR follow-up, counter-screen for GPR35 antagonist project, imaging, image-based (AID 2397); assay type: functional
G-protein coupled receptor 55, sequence (Q9Y2T6 whole entry): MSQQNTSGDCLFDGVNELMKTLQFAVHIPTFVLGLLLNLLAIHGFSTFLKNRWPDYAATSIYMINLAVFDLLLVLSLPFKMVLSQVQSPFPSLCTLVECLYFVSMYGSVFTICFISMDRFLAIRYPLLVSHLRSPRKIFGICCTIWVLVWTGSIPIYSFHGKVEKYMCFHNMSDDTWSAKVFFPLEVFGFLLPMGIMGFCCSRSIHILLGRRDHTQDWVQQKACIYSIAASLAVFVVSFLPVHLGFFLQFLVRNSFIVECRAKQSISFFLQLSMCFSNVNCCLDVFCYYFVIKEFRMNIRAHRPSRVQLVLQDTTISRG

Cytochrome P450 2C19 = Cytochrome P450 2C19 (Homo sapiens, UniProt P33261); assay: Cytochrome panel assay with activity outcomes. Panel member name: p450-cyp2c19 Compounds with AC50 equal or less than 10 uM are considered active; assay type: functional
Cytochrome P450 2C19, sequence (P33261 whole entry): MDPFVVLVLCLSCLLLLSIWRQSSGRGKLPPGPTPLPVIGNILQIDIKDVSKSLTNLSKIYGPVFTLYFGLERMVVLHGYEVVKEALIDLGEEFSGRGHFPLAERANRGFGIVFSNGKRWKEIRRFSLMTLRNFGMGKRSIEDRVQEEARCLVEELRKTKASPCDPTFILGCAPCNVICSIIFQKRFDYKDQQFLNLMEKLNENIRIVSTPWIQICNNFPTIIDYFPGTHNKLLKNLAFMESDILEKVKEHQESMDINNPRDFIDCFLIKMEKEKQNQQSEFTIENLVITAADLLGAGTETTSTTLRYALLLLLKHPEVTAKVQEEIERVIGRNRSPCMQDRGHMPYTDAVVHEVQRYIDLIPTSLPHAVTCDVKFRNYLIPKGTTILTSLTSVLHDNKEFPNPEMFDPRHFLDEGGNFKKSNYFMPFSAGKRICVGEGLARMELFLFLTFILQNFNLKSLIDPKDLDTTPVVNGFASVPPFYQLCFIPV

Cytochrome P450 2D6 = Cytochrome P450 2D6 (Homo sapiens, UniProt P10635);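 further: CYP2D6 member of a cytochrome P450 panel assay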
Cytochrome P450 2D6, sequence (P10635 whole entry, the tested form may be a part): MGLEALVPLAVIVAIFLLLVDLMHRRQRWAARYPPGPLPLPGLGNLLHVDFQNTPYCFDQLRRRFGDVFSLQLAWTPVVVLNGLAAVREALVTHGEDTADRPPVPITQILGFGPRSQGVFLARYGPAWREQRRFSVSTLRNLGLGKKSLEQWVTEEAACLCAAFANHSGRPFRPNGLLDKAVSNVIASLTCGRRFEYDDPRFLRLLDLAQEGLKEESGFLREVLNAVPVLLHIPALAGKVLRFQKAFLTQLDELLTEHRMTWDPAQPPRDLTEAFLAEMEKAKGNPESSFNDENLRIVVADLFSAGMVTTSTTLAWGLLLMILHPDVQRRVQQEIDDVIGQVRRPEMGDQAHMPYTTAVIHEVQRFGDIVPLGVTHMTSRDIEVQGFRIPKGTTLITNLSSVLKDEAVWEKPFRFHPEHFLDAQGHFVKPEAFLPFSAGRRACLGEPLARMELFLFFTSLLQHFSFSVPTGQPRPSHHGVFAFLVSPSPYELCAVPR

[20] = target: T2, Nucleotide-binding oligomerization domain-containing protein 1; assay: SAR analysis of compounds that inhibit NOD1 - Set 3. [Related pubchem assays (depositor defined):AID1566, AID1575, AID1578, AID1849, AID1852, AID2333, AID2335, AID2466]; assay type: functional
Tumor necrosis factor [21] = target: T1, Tumor necrosis factor; assay: TNFa-triggered NF-kB activation inhibitors, SAR follow-up, cell-based, set 3 (AID 2801); assay type: functional
HEK293 [22] = assay: SAR analysis of compounds that are cytotoxic to HEK293 - Set 3. [Related pubchem assays (depositor defined):AID1575, AID1578, AID1848, AID1849, AID2001, AID2333, AID2334, AID2335, AID2337, AID2469]; assay type: functional, cell-based; settings: Homo sapiens
[23] = target: Nucleotide-binding oligomerization domain-containing protein 2 (Homo sapiens, UniProt Q9HC29); assay: NOD2 signaling inhibitors, analog potency, SAR follow-up, cell-based, set 3 (AID 2799); assay type: functional
Nucleotide-binding oligomerization domain-containing protein 2, sequence (Q9HC29 whole entry, the tested form may be a part): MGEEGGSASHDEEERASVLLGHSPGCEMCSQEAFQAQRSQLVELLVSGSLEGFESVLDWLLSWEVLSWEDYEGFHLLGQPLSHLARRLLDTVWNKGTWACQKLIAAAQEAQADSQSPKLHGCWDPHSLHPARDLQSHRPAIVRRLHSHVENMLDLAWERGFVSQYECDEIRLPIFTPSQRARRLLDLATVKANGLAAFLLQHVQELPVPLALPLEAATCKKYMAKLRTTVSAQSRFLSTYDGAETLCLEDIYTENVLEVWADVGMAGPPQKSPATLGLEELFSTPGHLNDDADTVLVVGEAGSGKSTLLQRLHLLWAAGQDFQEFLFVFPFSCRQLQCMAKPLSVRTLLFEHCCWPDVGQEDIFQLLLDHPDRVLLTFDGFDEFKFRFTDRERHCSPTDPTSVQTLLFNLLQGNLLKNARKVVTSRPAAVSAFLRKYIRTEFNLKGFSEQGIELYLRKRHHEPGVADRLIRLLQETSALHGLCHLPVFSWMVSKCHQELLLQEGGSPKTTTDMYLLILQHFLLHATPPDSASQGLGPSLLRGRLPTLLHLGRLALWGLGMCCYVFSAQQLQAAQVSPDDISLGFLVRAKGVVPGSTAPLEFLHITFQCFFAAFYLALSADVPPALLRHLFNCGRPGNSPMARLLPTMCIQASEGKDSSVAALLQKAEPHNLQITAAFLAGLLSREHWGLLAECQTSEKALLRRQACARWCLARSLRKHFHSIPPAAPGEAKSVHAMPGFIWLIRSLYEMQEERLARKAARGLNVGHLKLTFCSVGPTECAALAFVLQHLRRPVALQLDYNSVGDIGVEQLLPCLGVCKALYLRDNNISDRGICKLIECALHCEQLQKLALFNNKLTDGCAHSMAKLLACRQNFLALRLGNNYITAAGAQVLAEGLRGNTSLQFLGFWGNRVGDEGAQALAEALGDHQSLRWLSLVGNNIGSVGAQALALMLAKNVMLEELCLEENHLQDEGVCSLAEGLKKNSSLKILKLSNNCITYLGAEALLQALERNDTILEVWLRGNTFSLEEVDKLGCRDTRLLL

[24] = target: Lysine-specific demethylase 4A (Homo sapiens, UniProt O75164); assay: JMJD2A histone demethylase inhibitors, dose response, selectivity assay for GASC-1 inhibitor project, biochemical, DELFIA europium, cherry-picked samples (AID 488840)
[25] = Luminescence Cell-Based Dose Retest to Confirm Inhibitors of Cancer Stem Cells. [Related pubchem assays (depositor defined):AID2717, AID2721]; assay type: functional; settings: Homo sapiens
[26] = cytotoxicity in HMLE control line with eGFP shRNA, dose response, counter-screen for HMLE_sh_ECad selective toxicity project, cell-based, HMLE_sh_eGFP, luminescence (AID 463074); assay type: functional, Homo sapiens;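 further: HMLE human mammary epithelial cells expressing control shRNA against eGFP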

T1 sequence (P01375 whole entry, the tested form may be a part): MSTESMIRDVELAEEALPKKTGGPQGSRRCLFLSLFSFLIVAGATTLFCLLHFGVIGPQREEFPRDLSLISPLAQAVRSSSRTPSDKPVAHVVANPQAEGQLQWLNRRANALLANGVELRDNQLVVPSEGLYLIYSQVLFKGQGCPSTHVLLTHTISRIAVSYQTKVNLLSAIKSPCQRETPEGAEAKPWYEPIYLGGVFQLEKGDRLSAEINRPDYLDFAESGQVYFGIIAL
Sphingosine 1-phosphate receptor 2, sequence (O95136 whole entry): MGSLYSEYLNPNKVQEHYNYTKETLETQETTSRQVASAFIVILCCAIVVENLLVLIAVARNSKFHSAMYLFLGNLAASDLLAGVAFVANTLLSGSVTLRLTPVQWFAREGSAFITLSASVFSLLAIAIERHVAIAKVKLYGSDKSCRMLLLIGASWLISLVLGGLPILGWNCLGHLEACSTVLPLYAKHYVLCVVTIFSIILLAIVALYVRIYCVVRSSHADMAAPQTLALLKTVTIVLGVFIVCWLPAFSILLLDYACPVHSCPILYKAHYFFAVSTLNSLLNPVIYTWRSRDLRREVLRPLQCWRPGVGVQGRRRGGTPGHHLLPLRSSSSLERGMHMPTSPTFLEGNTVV

O=C(Nc1ccc(S(=O)(=O)N2CCOCC2)cc1)c1ccc(CN2CCc3ccccc3C2)cc1
IC50 [1]: 3.77 µM (active) | IC50 (Tumor necrosis factor [2]): 0.627 µM (active) | IC50 [3]: 0.347 µM (active) | IC50 [4]: > 80 µM (inactive) | AC50 (Cytochrome P450 3A4): inconclusive | IC50 (HEK293 [5]): 5.46 µM (active)

NC(=O)[C@@H]1CC2(CC(c3cccc(NC(=O)CC(c4ccccc4)c4ccccc4)c3)=NO2)CN1C(=O)c1ccc(Cl)cc1 (stereo partly drawn)
EC50 [6]: 0.619 µM (active) | EC50 [7]: > 60 µM (not active) | AC50 (CAAX prenyl protease 1): 5.27 µM (active) | AC50 (CAAX prenyl protease 2): 41.7 µM (active) | IC50 [8]: > 7.72 µM (active) | IC50 [9]: > 69.5 µM (inactive)

CCc1ccc(/C=C2\SC(=S)N(CCCC(=O)Nc3ccc(C(=O)O)cc3)C2=O)cc1
IC50 [10]: < 0.5 µM (active) | EC50 [11]: 0.248 µM (active) | IC50 [12]: 0.636 µM (active) | EC50 [13]: 7.29 µM (active) | EC50 [14]: 7.61 µM (active) | EC50 [15]: 3.67 µM (active) | EC50 (Streptokinase A): > 150 µM (not active) | EC50 (Streptococcus): > 150 µM (not active) | IC50 [16]: 9.28 µM (active) | IC50 [17]: 76.8 µM (active) | IC50 [18]: 0.581 µM (active) | IC50 [19]: 17.3 µM (inactive)

CC[C@@]1([N+](=O)[O-])C[C@H]2C=C[C@@H]1C2.CC[C@@]1([N+](=O)[O-])C[C@H]2C=C[C@@H]1C2
AC50 (Cytochrome P450 2C19): inconclusive | AC50 (Cytochrome P450 2D6): inconclusive

Nc1nc2ccccc2n1S(=O)(=O)c1ccc(Cl)c(Cl)c1
IC50 [20]: 0.529 µM (active) | IC50 (Tumor necrosis factor [21]): > 20 µM (inactive) | IC50 (HEK293 [22]): > 20 µM (inactive) | IC50 [23]: > 20 µM (inactive)

Cc1ccc(S(=O)(=O)Nc2ccc3c(c2)CC(=O)N([C@H](C)CO)C[C@@H](C)[C@H](CN(C)S(=O)(=O)c2ccccc2)O3)cc1
AC50 [24]: > 60 µM (inactive)

COc1cc(F)cc(-c2ccc3c(c2)c(-c2cccs2)c(-c2cc(OC)cc(OC)c2)n3C)c1
AC50 [25]: 16.5 µM (active) | AC50 [26]: 26.5 µM (active)

— ChEMBL document CHEMBL1201862, “PubChem BioAssay data set” (2004)
